What was measured:
Opioid receptor delta 1 = Opioid receptor delta 1 (Bos taurus, UniProt F1N083)
Mu-type opioid receptor = Mu-type opioid receptor (Bos taurus, UniProt P79350)
Sequence of Mu-type opioid receptor (P79350 whole entry): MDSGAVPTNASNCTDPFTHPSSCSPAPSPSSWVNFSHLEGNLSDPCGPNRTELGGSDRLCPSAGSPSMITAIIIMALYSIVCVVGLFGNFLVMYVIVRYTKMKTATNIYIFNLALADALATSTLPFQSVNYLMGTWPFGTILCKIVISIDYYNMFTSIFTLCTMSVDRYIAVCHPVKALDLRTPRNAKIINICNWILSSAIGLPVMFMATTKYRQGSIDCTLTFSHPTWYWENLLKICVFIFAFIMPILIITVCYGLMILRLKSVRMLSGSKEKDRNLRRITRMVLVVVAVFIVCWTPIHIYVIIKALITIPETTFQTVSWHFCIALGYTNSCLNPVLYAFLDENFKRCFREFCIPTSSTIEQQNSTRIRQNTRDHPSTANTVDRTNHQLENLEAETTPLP

Sequence of Opioid receptor delta 1 (F1N083 whole entry): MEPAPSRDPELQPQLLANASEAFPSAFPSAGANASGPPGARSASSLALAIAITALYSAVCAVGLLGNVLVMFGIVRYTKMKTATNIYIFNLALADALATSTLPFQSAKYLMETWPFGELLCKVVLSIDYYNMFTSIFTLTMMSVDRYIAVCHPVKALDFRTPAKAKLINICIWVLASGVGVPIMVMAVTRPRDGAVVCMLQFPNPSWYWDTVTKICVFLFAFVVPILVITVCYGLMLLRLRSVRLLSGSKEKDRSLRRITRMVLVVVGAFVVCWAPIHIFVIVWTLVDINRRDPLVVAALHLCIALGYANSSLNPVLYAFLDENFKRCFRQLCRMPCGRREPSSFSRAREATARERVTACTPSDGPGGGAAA

Row | Structure (SMILES) | Ki (Opioid receptor delta 1) | Ki (Mu-type opioid receptor)
1 | COc1ccc2c3c1O[C@H]1C(=O)CCC4(NC(=O)/C=C\c5ccc([N+](=O)[O-])cc5)C(C2)N(CC2CC2)CCC314 (stereo partly specified) [N-CPM-CACO] | 16 nM | –
2 | COc1ccc2c3c1O[C@H]1C(=O)CCC4(NC(=O)/C=C\c5ccc(Cl)cc5)C(C2)N(CC2CC2)CCC314 (stereo partly specified) [MC-CAM] | 12 nM | 1.4 nM
3 | COc1ccc2c3c1O[C@H]1C(=O)CCC4(NC(=O)/C=C\c5ccc([N+](=O)[O-])cc5)C(C2)N(C)CCC314 (stereo partly specified) [CACO] | – | 0.46 nM
4 | COc1ccc2c3c1O[C@H]1C(=O)CCC4(NC(=O)/C=C\c5ccc(Cl)cc5)C(C2)N(C)CCC314 (stereo partly specified) [CAM] | 0.75 nM | 0.12 nM
